Source: patent US12528815B2, “5-amino-8-(4-pyridyl)-[1,2,4]triazolo[4,3-c]pyrimidin-3-one compounds for use against cancer” (Nxera Pharma UK Limited, priority 2020, dated 2026)

Legend:
[1] = biological target: T1, human CB-1 cannabinoid receptor (Homo sapiens, UniProt P21554); experiment: CB1 receptor radioligand binding assay, [3H]CP 55940, transfected CHO cell membranes; conditions: 0.5 nM [3H]CP 55940, CHO membrane homogenates, 120 min at 37° C.
T1 construct: expressed in transfected cells; host or cells: CHO cells
T1 sequence (P21554 whole entry): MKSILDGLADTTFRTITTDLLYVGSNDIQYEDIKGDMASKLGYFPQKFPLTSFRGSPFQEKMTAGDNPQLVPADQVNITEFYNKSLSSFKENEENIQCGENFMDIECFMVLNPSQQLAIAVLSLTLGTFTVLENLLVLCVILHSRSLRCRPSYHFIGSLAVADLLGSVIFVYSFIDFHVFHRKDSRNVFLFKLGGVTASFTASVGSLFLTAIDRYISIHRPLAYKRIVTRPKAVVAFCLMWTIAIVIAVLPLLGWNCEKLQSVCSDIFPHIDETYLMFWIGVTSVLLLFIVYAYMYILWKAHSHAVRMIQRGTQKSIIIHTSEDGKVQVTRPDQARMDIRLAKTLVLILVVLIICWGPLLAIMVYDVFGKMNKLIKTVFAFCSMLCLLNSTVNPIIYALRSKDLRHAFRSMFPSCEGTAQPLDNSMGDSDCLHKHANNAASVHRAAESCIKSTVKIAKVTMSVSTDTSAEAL
Protocol: Nonspecific binding is determined in the presence of 10 μM WIN 55212-2.
Following incubation, the samples are filtered rapidly under vacuum through glass fiber filters (GF/B, Packard) presoaked with 0.3% PEI and rinsed several times with an ice-cold buffer containing 50 mM Tris-HCl (pH 7.4) and 0.5% BSA using a 96-sample cell harvester (Unifilter, Packard). The filters are dried then counted for radioactivity in a scintillation counter (Topcount, Packard) using a scintillation cocktail (Microscint 0, Packard).
The standard reference compound is CP 55940 which is tested in each experiment at several concentrations to obtain a competition curve from which its IC50 is calculated.

[2] = biological target: T2, human adenosine A1 receptor (Homo sapiens, UniProt P30542); experiment: Inhibition binding assay, human adenosine A1 receptor membranes, [3H]DPCPX; conditions: 1 nM [3H]DPCPX, 25° C., 1 h; IC50 converted to Ki with Cheng-Prusoff; read-out: A1 pKi (converted)
T2 construct: expressed in transfected cells; host or cells: HEK293 cells infected with BacMam (the same paragraph also labels the preparation CHO-hA1)
T2 sequence (P30542 1-326): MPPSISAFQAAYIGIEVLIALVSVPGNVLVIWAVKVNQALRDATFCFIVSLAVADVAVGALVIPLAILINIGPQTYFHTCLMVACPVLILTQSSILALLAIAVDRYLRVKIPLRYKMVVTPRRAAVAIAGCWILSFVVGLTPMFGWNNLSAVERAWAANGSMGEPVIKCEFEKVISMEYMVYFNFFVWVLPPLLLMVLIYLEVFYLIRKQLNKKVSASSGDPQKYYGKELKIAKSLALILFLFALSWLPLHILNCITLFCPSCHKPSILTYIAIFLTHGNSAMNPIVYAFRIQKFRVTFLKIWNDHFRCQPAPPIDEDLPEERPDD
Outline: (§1)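 Membranes from BacMam-infected HEK293 cells (0.2 μg A2A, 1.4 μg A1) incubated 1 h at 25° C with test compound and 1 nM [3H]ZM241385 (A2A; 50 mM Tris-HCl pH 7.4) or [3H]DPCPX (A1; plus 100 mM NaCl, 10 mM MgCl2). Nonspecific: 1 μM CGS15943 or DPCPX. Filtration, scintillation; IC50 converted to Ki via Cheng-Prusoff.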

human CB1 receptor = biological target: T3, human CB1 receptor (Homo sapiens, UniProt P21554); experiment: CB1 receptor antagonism, agonist-induced cAMP modulation (HTRF) in transfected CHO cells; type: cell-based; conditions: read-out: Antag IC50
T3 construct: expressed in transfected cells; host or cells: CHO cells
T3 sequence (P21554 whole entry): as the sequence (P21554 whole entry) above
Protocol: Receptor antagonism: Evaluation of the antagonist activity of compounds at the human CB1 receptor expressed in transfected CHO cells, determined by measuring their effects on agonist-induced cAMP modulation using the HTRF detection method.
Thereafter, the reference agonist CP 55940 and the adenylyl cyclase activator NKH 477 are added at respective final concentrations of 3 nM and 3 μM.
For basal control measurements, CP 55940 is omitted from the wells containing 3 μM AM 281.
Following 20 min incubation at 37° C., the cells are lysed and the fluorescence acceptor (D2-labeled cAMP) and fluorescence donor (anti-cAMP antibody labeled with europium cryptate) are added.
After 60 min at room temperature, the fluorescence transfer is measured at λex=337 nm and λem=620 and 665 nm using a microplate reader (Rubystar, BMG). The cAMP concentration is determined by dividing the signal measured at 665 nm by that measured at 620 nm (ratio).
The standard reference antagonist is AM 281, which is tested in each experiment at several concentrations to generate a concentration-response curve from which its IC50 value is calculated.

[3] = biological target: T4, human adenosine A2A receptor (Homo sapiens, UniProt P29274); experiment: Inhibition binding assay, human adenosine A2A receptor membranes, [3H]ZM241385; conditions: 1 nM [3H]ZM241385, HEK293-hA2A membranes, 25° C., 1 h; IC50 converted to Ki with Cheng-Prusoff; read-out: A2A pKi (converted)
T4 construct: expressed in transfected cells; host or cells: HEK293 cells infected with BacMam
T4 sequence (P29274 whole entry): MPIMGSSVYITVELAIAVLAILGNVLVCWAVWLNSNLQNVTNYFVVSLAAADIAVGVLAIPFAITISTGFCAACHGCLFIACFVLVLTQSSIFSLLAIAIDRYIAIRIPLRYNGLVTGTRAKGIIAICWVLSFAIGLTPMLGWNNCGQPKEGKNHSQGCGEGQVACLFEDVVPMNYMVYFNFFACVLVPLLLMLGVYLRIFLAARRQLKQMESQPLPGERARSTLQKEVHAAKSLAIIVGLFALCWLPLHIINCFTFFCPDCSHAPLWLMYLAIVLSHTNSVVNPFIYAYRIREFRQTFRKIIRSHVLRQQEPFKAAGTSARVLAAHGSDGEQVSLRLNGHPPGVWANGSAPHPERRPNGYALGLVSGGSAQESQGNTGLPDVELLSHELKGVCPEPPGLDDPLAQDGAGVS
Outline: as §1

Row | SMILES | Ki [1] | Ki [2] | IC50 (human CB1 receptor) | Ki [3]
1 | Cc1cc(-c2c(-c3ccc(F)cc3)nc(N)n3c(=O)n(Cc4cccnn4)nc23)cc(C)n1 [Example 1-41, 5-amino-8-(2,6-dimethyl-4-pyridyl)-7-(4-fluorophenyl)-2-(pyridazin-3-ylmethyl)-[1,2,4]triazolo[4,3-c]pyrimidin-3-one] | 45600 nM | 398 nM | 43100 nM | 2.51 nM
2 | Cc1cc(-c2c(-c3ccccc3)nc(N)n3c(=O)n(CCc4ccccc4)nc23)cc(C)n1 [Example 1-80, 5-amino-8-(2,6-dimethyl-4-pyridyl)-7-phenyl-2-(2-phenylethyl)-[1,2,4]triazolo[4,3-c]pyrimidin-3-one] | 10800 nM | 126 nM | 10200 nM | 2 nM
3 | Cc1cc(-c2c(-c3ccccc3)nc(N)n3c(=O)n(Cc4ccc(F)cc4)nc23)cc(C)n1 [Example 1-1, 5-amino-8-(2,6-dimethyl-4-pyridyl)-2-[(4-fluorophenyl)methyl]-7-phenyl-[1,2,4]triazolo[4,3-c]pyrimidin-3-one] | 3600 nM | 31.6 nM | 1700 nM | 0.398 nM
4 | Cc1cc(-c2c(-c3ccccc3)nc(N)n3c(=O)n(Cc4ccc(F)cn4)nc23)cc(C)n1 [Example 1-2, 5-amino-8-(2,6-dimethyl-4-pyridyl)-2-[(5-fluoro-2-pyridyl)methyl]-7-phenyl-[1,2,4]triazolo[4,3-c]pyrimidin-3-one] | 20100 nM | 316 nM | > 4900 nM | 0.794 nM
5 | Cc1cc(-c2c(-c3ccccc3)nc(N)n3c(=O)n(Cc4ccc(F)cn4)nc23)cc(CO)n1 [Example 1-44, 5-amino-2-[(5-fluoro-2-pyridyl)methyl]-8-[2-(hydroxymethyl)-6-methyl-4-pyridyl]-7-phenyl-[1,2,4]triazolo[4,3-c]pyrimidin-3-one] | 40000 nM | 398 nM | 63300 nM | 1.58 nM
6 | Nc1nc(Cn2nc3c(-c4cc(Cl)nc(CO)c4)c(-c4ccccc4)nc(N)n3c2=O)ccc1F [Example 1-70, 5-amino-2-[(6-amino-5-fluoro-2-pyridyl)methyl]-8-[2-chloro-6-(hydroxymethyl)-4-pyridyl]-7-phenyl-[1,2,4]triazolo[4,3-c]pyrimidin-3-one] | 61300 nM | 50.1 nM | > 100000 nM | 0.316 nM
7 | Cc1cc(-c2c(-c3ccccc3)nc(N)n3c(=O)n(Cc4ccc(F)cn4)nc23)cc(N2CCC2)n1 [Example 1-75, 5-amino-8-[2-(azetidin-1-yl)-6-methyl-4-pyridyl]-2-[(5-fluoro-2-pyridyl)methyl]-7-phenyl-[1,2,4]triazolo[4,3-c]pyrimidin-3-one] | 39100 nM | 126 nM | 17900 nM | 3.16 nM
8 | COc1cc(-c2c(-c3ccccc3)nc(N)n3c(=O)n(Cc4ccc(Cl)cn4)nc23)cc(CO)n1 [Example 1-65, 5-amino-2-[(5-chloro-2-pyridyl)methyl]-8-[2-(hydroxymethyl)-6-methoxy-4-pyridyl]-7-phenyl-[1,2,4]triazolo[4,3-c]pyrimidin-3-one] | 19900 nM | 794 nM | 9300 nM | 0.794 nM
9 | COc1ncccc1Cn1nc2c(-c3cc(C)nc(CO)c3)c(-c3ccccc3)nc(N)n2c1=O [Example 1-57, 5-amino-8-[2-(hydroxymethyl)-6-methyl-4-pyridyl]-2-[(2-methoxy-3-pyridyl)methyl]-7-phenyl-[1,2,4]triazolo[4,3-c]pyrimidin-3-one] | 62600 nM | 126 nM | > 100000 nM | 0.631 nM
10 | COc1cc(-c2c(-c3ccccc3)nc(N)n3c(=O)n(Cc4ccc(F)c(N)n4)nc23)cc(CO)n1 [Example 1-64, 5-amino-2-[(6-amino-5-fluoro-2-pyridyl)methyl]-8-[2-(hydroxymethyl)-6-methoxy-4-pyridyl]-7-phenyl-[1,2,4]triazolo[4,3-c]pyrimidin-3-one] | 23500 nM | 158 nM | > 100000 nM | 0.316 nM
11 | COc1ncc(F)cc1Cn1nc2c(-c3cc(C)nc(C)c3)c(-c3ccccc3)nc(N)n2c1=O [Example 1-40, 5-amino-8-(2,6-dimethyl-4-pyridyl)-2-[(5-fluoro-2-methoxy-3-pyridyl)methyl]-7-phenyl-[1,2,4]triazolo[4,3-c]pyrimidin-3-one] | 24100 nM | 39.8 nM | 7400 nM | 0.794 nM
12 | Cc1cc(-c2c(-c3ccccc3)nc(N)n3c(=O)n(C(C)c4ccc(F)cc4F)nc23)cc(C)n1 (stereo not shown) [Example 1-11, 5-amino-2-[1-(2,4-difluorophenyl)ethyl]-8-(2,6-dimethyl-4-pyridyl)-7-phenyl-[1,2,4]triazolo[4,3-c]pyrimidin-3-one] | 2600 nM | 398 nM | 5000 nM | 6.31 nM
13 | Cc1ccc(Cn2nc3c(-c4cc(C)nc(CO)c4)c(-c4ccccc4)nc(N)n3c2=O)nc1 [Example 1-52, 5-amino-8-[2-(hydroxymethyl)-6-methyl-4-pyridyl]-2-[(5-methyl-2-pyridyl)methyl]-7-phenyl-[1,2,4]triazolo[4,3-c]pyrimidin-3-one] | 46100 nM | 501 nM | 39400 nM | 0.631 nM

Next, values leading:

Row | Ki [1] | Ki [2] | IC50 (human CB1 receptor) | Ki [3] | SMILES
14 | 75700 nM | > 3160 nM | > 100000 nM | 39.8 nM | Cc1cc(-c2c(-c3ccc(F)cn3)nc(N)n3c(=O)n(CCC(F)(F)F)nc23)cc(C)n1 [Example 2-40, 5-amino-8-(2,6-dimethyl-4-pyridyl)-7-(5-fluoro-2-pyridyl)-2-(3,3,3-trifluoropropyl)-[1,2,4]triazolo[4,3-c]pyrimidin-3-one]
15 | 3900 nM | 100 nM | 3500 nM | 0.398 nM | Cc1cc(-c2c(-c3ccccc3)nc(N)n3c(=O)n(CC4CCC(F)(F)C4)nc23)cc(C)n1 (stereo not shown) [Example 2-26, 5-amino-2-[(3,3-difluorocyclopentyl)methyl]-8-(2,6-dimethyl-4-pyridyl)-7-phenyl-[1,2,4]triazolo[4,3-c]pyrimidin-3-one]
16 | 37700 nM | 501 nM | > 100000 nM | 1.26 nM | Nc1nc(-c2ccccc2)c(-c2cc(CO)nc(C(F)(F)F)c2)c2nn(CCC(F)(F)F)c(=O)n12 [Example 2-53, 5-amino-8-[2-(hydroxymethyl)-6-(trifluoromethyl)-4-pyridyl]-7-phenyl-2-(3,3,3-trifluoropropyl)-[1,2,4]triazolo[4,3-c]pyrimidin-3-one]
17 | 72700 nM | 251 nM | > 100000 nM | 10 nM | Cc1cc(-c2c(-c3ccccc3)nc(N)n3c(=O)n(CC(C)C)nc23)cc(C)[n+]1[O-] [Example 2-57, 5-amino-8-(2,6-dimethyl-1-oxido-pyridin-1-ium-4-yl)-2-isobutyl-7-phenyl-[1,2,4]triazolo[4,3-c]pyrimidin-3-one]
18 | 14600 nM | 200 nM | 2400 nM | 7.94 nM | Cc1cc(-c2c(-c3ccccc3)nc(N)n3c(=O)n(CC45C6C7C4C4C5C6C74F)nc23)cc(CO)n1 (stereo not shown) [Example 2-60, 5-amino-2-[(4-fluorocuban-1-yl)methyl]-8-[2-(hydroxymethyl)-6-methyl-4-pyridyl]-7-phenyl-[1,2,4]triazolo[4,3-c]pyrimidin-3-one]
19 | 52000 nM | 1000 nM | > 100000 nM | 2 nM | Cc1cc(-c2c(-c3ccccc3)nc(N)n3c(=O)n(CC4CCOCC4)nc23)cc(C)n1 [Example 2-73, 5-amino-8-(2,6-dimethyl-4-pyridyl)-7-phenyl-2-(tetrahydropyran-4-ylmethyl)-[1,2,4]triazolo[4,3-c]pyrimidin-3-one]
